# Assay results reported in PMC4618944, “Congo Red Interactions with Curli-Producing E. coli and Native Curli Amyloid Fibers” (PLoS ONE, 2015).
# pKd: −log10 of the molar value.
# Molecular target: T1, curli (CsgA amyloid fibers) (Escherichia coli, UniProt P28307)
# T1 construct: native curli fibers isolated from MC4100, mature CsgA polymer (sec signal removed; native fibers may contain minor nucleator CsgB); immobilized by amine coupling for SPR
# Assay: surface plasmon resonance (Biacore […]), curli immobilized on CM5 chip
# Assay type: binding
# T1 sequence (P28307 21-151): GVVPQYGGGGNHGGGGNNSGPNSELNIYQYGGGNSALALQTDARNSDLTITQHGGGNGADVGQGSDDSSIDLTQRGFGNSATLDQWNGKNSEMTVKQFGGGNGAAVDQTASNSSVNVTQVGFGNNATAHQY
compound,measurement,value
"Nc1c(/N=N/c2ccc(-c3ccc(/N=N/c4cc(S(=O)(=O)O)c5ccccc5c4N)cc3)cc2)cc(S(=O)(=O)O)c2ccccc12 [CR, Congo red]",pKd,5.55
